Counter-ions that a name gives are not always drawn.

The record followed here is patent US20210052582A1, “METHODS OF USE AND PHARMACEUTICAL COMPOSITIONS OF A SELECTIVE SYK INHIBITOR” (Portola Pharmaceuticals, Inc., priority 2018, published 2021).

The nature of data set [1]: Dissolution study of HCl salt and free base in formulation buffer. The class given is physicochemical. The settings on record: for solubility (visual appearance): 10 mg/mL (1%) in pH 6, 10 mM citrate buffer, 1% PEG400, 1% Glycerin, 0.3% NaCl, 0.05% PS80. The protocol: A dissolution study was performed in which the HCl salt or the free base were added to the following formulation buffer at a concentration of 10 mg/mL (1%): • pH 6, 10 mM citrate buffer, 1% PEG400, 1% Glycerin, 0.3% NaCl, 0.05% PS80.
The pH was increased for soluble samples to better understand their properties. The appearance of the samples was visually observed for clarity or cloudiness. […] The free base was not soluble.

Data set [2] can be described thus: Free base solubilization with solubilizers. The class given is physicochemical. The settings on record: aqueous solubilizer (excipient) mixture, aqueous with cosolvent or surfactant or cyclodextrin; combination of 3% Glycerin, 5% PEG 400, 5% PEG-35 castor oil, 15% polysorbate 60, 4% polysorbate 80, 2% PVP K29/32, 10% propylene glycol. The text has this:
The free base was not soluble with various solubilizers.

In data set [3] the test system is Mice sensitized with short ragweed allergen. In words: Murine model of allergic conjunctivitis (conjunctival allergen challenge, short ragweed). The class given is in vivo, mouse. As for the experimental part:
Mice were sensitized with subcutaneously injected short ragweed allergen (day 1, day 11), and underwent conjunctival allergen challenge (CAC) on day 18 with short ragweed allergen. Following challenge, the mice were randomized into treatment groups (n=8) and given topical test compounds: vehicle, 0.1% Compound 1, 1% Compound 1, 1% prednisolone, or saline (BSS) twice a day for 2 days, and three times a day for an additional 4 days during allergen challenges. Challenges were conducted twice daily, on day 21 thru 24. Responses to allergen challenge were evaluated after challenges 1, 4, 6 and 8.

In data set [4] the test system is patients with acute or chronic allergic conjunctivitis. Put plainly: Clinical conjunctival allergen challenge (CAC) study. In kind it is in vivo, human. The text has this: In a study utilizing the clinical model of the conjunctival allergen challenge (CAC) qualifying patients with acute or chronic allergic conjunctivitis were randomized to receive one of the five interventions listed below, each was given six doses at 1 drop per dose. The CAC model is a standardized clinical methodology for evaluation of novel drugs for allergy and anti-inflammatory activity, accepted by the FDA for clinical development of novel therapeutics, and has been used for development of 19 drugs currently on the market. In the CAC model, doses of allergen are administered in a controlled fashion to patients eyes in the office setting to induce a controlled allergic reaction. Drug is administered at pre-specified timepoints and signs and symptoms are collected also at pre-specified timepoints to assess efficacy.
• Composition A: 0.5% w/w Compound 1 HCl salt, 1.5% w/w glycerin, 0.01% w/w BAC in 10 mM phosphate buffer, pH 6.0. • Composition B: 1.0% w/w Compound 1 HCl salt, 1.5% w/w glycerin, 0.01% w/w BAC in 10 mM phosphate buffer, pH 6.0. • Placebo: 0.01% w/w BAC, 1.5% w/w glycerol, pH 6.0. After receiving screening and baseline CACs, patients were assigned in a masked randomization fashion to receive a study treatment at 8 hour or 15 min pre-CAC at Visits 4b and 5, respectively. […]
• Ocular Itching [Time Frame: 5, 7, and 10 minutes post allergen administration (CAC)] Ocular Itching were assessed by the subjects using a 0-4 scale (0=none to 4=severe). Average of ocular itching score over both eyes were analyzed. • Conjunctival Redness [Time Frame: 7, 15, and 20 minutes post allergen administration CAC] • Conjunctival Redness were assessed by the investigator using a 0-4 scale (0=none to 4=severe). Average of conjunctival redness score over both eyes were analyzed. • Other variables assessed for efficacy include lid swelling, chemosis, tearing, nasal symptoms, and indication of biological activity via exploratory assessment of biomarkers, and exploratory imaging of inflammation with in vivo confocal microscopy. […]

Consider `NC(=O)c1cnc(N[C@@H]2CCCC[C@@H]2N)nc1Nc1cccc(-c2ncccn2)c1` [Compound 1, 2-((1R,2S)-2-aminocyclohexylamino)-4-(3-(pyrimidin-2-yl)phenylamino)pyrimidine-5-carboxamide], for which, in data set [1] (listed as free base), the “solubility (visual appearance)” value is recorded as “not soluble”. For the same molecule, the solubility in data set [2] lay in the range of 1000 to 10000 µg/mL. In data set [3] (1% Compound 1), the “test days with statistically significant reduction in overall mean hyperemia” value is recorded as 3 of 4. Further, in data set [3] (Compound 1 (0.1%), topical), the “test days with significantly reduced mean change in hyperemia compared to saline” value is recorded as 2 of 4. In addition, the “test days with significantly reduced mean change in hyperemia (pre-versus post-CAC) compared to saline” value in data set [3] (Compound 1 (1%), topical) is 4 of 4. For the same molecule, in data set [3] (mouse, in vivo), the “ocular discharge, lid swelling, or squinting” value is “No significant changes”. Moreover, the “relief of allergic conjunctivitis” value in data set [3] (murine model) was “showed efficacy”. In addition, the “treatment emergent adverse events” value in data set [4] (Compound 1 groups) is reported as “rated mild”. For the same molecule, the biological effect result in data set [4] (both concentrations (0.5%, 1%)) was “clear and consistent biological effect”. Also, in data set [4] (human, in vivo), the “reduction of redness, 8 hours versus 15 minutes following dosing” value is “reduced redness to a greater extent at 8 hours following dosing compared with 15 minutes”.

In the case of `NC(=O)c1cnc(N[C@@H]2CCCC[C@@H]2N)nc1Nc1cccc(-c2ncccn2)c1` [HCl salt, 2-((1R,2S)-2-aminocyclohexylamino)-4-(3-(pyrimidin-2-yl)phenylamino)pyrimidine-5-carboxamide], in data set [1], the “solubility (visual appearance)” value is on record as “soluble even at a pH of 6”. In addition, in data set [1] (same formulation buffer, pH increased), the “behaviour as pH was increased from 6” value is on record as “precipitates formed”.

With `C[C@]12C=CC(=O)C=C1CC[C@@H]1[C@@H]2[C@@H](O)C[C@@]2(C)[C@H]1CC[C@]2(O)C(=O)CO` [prednisolone, reference compound], the “test days with significant decrease in the mean change in hyperemia” value in data set [3] (prednisolone (1.0%), topical, positive control) is on record as 2 of 4.

The solubility is the concentration that dissolves in the medium under given conditions.
